Data taken from patent US7723363B2, “2-pyridinylethylcarboxamide derivatives and their use as fungicides” (Bayer Cropscience SA, priority 2004, dated 2010).

Experiments:
Botrytis cinerea = experiment: Effectiveness on Botrytis cinerea; type: in vivo; settings: at 330 ppm; comparison compounds of WO 01/11965
Alternaria brassicae = experiment: In vivo test on Alternaria brassicae (leaf spot of crucifers); settings: at 330 ppm; comparison compounds of WO 01/11965
Description: The active ingredient tested is prepared by potter homogenisation in a concentrated suspension type formulation at 100 g/l. This suspension is then diluted with water to obtain the desired active material concentration.
Radish plants (Pernot variety) in starter cups, sown on a 50/50 peat soil-pozzolana substrate and grown at 18-20° C., are treated at the cotyledon stage by spraying with the aqueous suspension described above.
Plants, used as controls, are treated with an aqueous solution not containing the active material.
After 24 hours, the plants are contaminated by spraying them with an aqueous suspension of Alternaria brassicae spores (40,000 spores per cm^3). The spores are collected from a 12-13-day-old culture.
The contaminated radish plants are incubated for 6-7 days at about 18° C., under a humid atmosphere.
Grading is carried out 6 to 7 days after the contamination, in comparison with the control plants.

Peronospora parasitica = experiment: Efficacy against Peronospora parasitica; type: in vivo; settings: at 330 ppm; comparison compound of WO 01/11965

CCNC(=O)C(Cc1ncc(C(F)(F)F)cc1Cl)NC(=O)c1ccccc1Br (stereo not shown) [compound 310, N-{1-ethylcarbamoyl-2-[3-chloro-5-(trifluoromethyl)-2-pyridinyl]ethyl}-2-bromobenzamide]
effectiveness on Botrytis cinerea (Botrytis cinerea): zero effectiveness

CNC(=O)C(Cc1ncc(C(F)(F)F)cc1Cl)NC(=O)c1ccc(-c2ccccc2)cc1 (stereo not shown) [compound 316, N-{1-methylcarbamoyl-2-[3-chloro-5-(trifluoromethyl)-2-pyridinyl]-ethyl}-4-phenylbenzamide]
effectiveness on Botrytis cinerea (Botrytis cinerea): zero effectiveness
effectiveness on Alternaria brassicae (Alternaria brassicae): poor effectiveness

O=C(Cc1cccs1)NCc1ncc(C(F)(F)F)cc1Cl [compound 101, N-{[3-chloro-5-(trifluoromethyl)-2-pyridinyl]methyl}-5-thienylacetamide]
effectiveness on Botrytis cinerea (Botrytis cinerea): no efficacy
effectiveness on Alternaria brassicae (Alternaria brassicae): poor efficacy
efficacy against Peronospora parasitica (Peronospora parasitica): no efficacy

O=C(NCC(C(=O)O)c1nc(F)c(Cl)cc1F)c1sccc1I (stereo not shown) [Compound A-3]
melting point: 192 °C

CNC(=O)C(Cc1ncc(C(F)(F)F)cc1Cl)NC(=O)c1ccccc1 (stereo not shown) [compound 314, N-{1-methylcarbamoyl-2-[3-chloro-5-(trifluoromethyl)-2-pyridinyl]ethyl}-benzamide]
effectiveness on Botrytis cinerea (Botrytis cinerea): zero effectiveness

CCNC(=O)C(Cc1ncc(C(F)(F)F)cc1Cl)NC(=O)c1ccc(Cl)cc1 (stereo not shown) [compound 306, N-{1-ethylcarbamoyl-2-[3-chloro-5-(trifluoromethyl)-2-pyridinyl]-ethyl}-4-chlorobenzamide]
effectiveness on Botrytis cinerea (Botrytis cinerea): zero effectiveness

CCNC(=O)C(Cc1ncc(C(F)(F)F)cc1Cl)NC(=O)c1ccccc1 (stereo not shown) [compound 304, N-{1-ethylcarbamoyl-2-[3-chloro-5-(trifluoromethyl)-2-pyridinyl]-ethyl}-benzamide]
effectiveness on Botrytis cinerea (Botrytis cinerea): zero effectiveness

CNC(=O)C(Cc1ncc(C(F)(F)F)cc1Cl)NC(=O)c1ccc(OC)cc1 (stereo not shown) [compound 315, N-{1-methylcarbamoyl-2-[3-chloro-5-(trifluoromethyl)-2-pyridinyl]ethyl}-4-methoxybenzamide]
effectiveness on Botrytis cinerea (Botrytis cinerea): zero effectiveness

CCNC(=O)C(Cc1ncc(C(F)(F)F)cc1Cl)NC(=O)c1cccc([N+](=O)[O-])c1 (stereo not shown) [compound 307, N-{1-ethylcarbamoyl-2-[3-chloro-5-(trifluoromethyl)-2-pyridinyl]ethyl}-3-nitrobenzamide]
effectiveness on Botrytis cinerea (Botrytis cinerea): zero effectiveness
effectiveness on Alternaria brassicae (Alternaria brassicae): poor effectiveness
